Test results: US9469630B2, “Sustained-release formulation for injection” (SUMITOMO DAINIPPON PHARMA CO., LTD., priority 2010, dated 2016)

Test: Solubility in water
Assay type: physicochemical

- solubility in water: low
SMILES: Cl.O=C1[C@@H]2[C@H]3CC[C@H](C3)[C@@H]2C(=O)N1C[C@@H]1CCCC[C@H]1CN1CCN(c2nsc3ccccc23)CC1 [Compound 1, N-[4-[4-(1,2-benzisothiazol-3-yl)-1-piperazinyl]-(2R,3R)-2,3-tetramethylene-butyl]-(1′R,2′S,3′R,4′S)-2,3-bicyclo[2,2,1]heptanedicarboximide hydrochloride]
